Measured values from patent publication US11434241B2, “Pyrimidine derivatives for prevention and treatment of bacterial infections” (UNIVERSITE DE LIEGE, priority 2018, dated 2022).
Converted amounts (≈) assume the structure as drawn.

Columns and labels:
S. aureus ATCC 25904 = assay: MIC determination on S. aureus ATCC 25904; type: cell-based; conditions: Staphylococcus aureus, ATCC25904, read-out: MIC S. aureus ATCC25904
Procedure: Further experiments are conducted using different strains of S. aureus, as clinically relevant Gram-positive bacterial strains: S. aureus ATCC 25904, methicillin-resistant S. aureus (MRSA) ATCC BAA-1556, Glycopeptide intermediate-resistant (GISA) S. aureus Mu-50 (ATCC 700695) in order to determine the Minimal Inhibitory Concentration (MIC) which is the minimal concentration required to prevent bacterial growth. The bioluminescent strain S. aureus Xen29 (ATCC 12600) was also used. This strain is derived from the parental strain S. aureus ATCC 12600, a pleural fluid isolate, which is also designated as NCTC8532.
A single colony selected from the different strains of S. aureus is resuspended and cultured in brain heart infusion (BHI) broth overnight (O/N) in aerobic conditions (37° C. with 220 rpm shaking), next day a 1:100 inoculum in Mueller-Hinton broth (MHB) is incubated in aerobic conditions for 3 hr (=OD0.08-0.1) and an inoculum of 1:300 dilution, corresponding to 3×10^5 CFU/ml, is incubated in presence or absence of different concentrations of the tested molecules in 1% DMSO. After O/N growth the OD of each culture was measured at 600 nm (OD600) in a spectrophotometer (Victor 3-Perkin Elmer). The MIC represents the concentration at which there is no visible growth of bacteria, i.e. ΔOD at 600 nm equal to zero (blank is the medium alone). […] The MIC of molecule 2329 against Glycopeptide intermediate-resistant (GISA) S. aureus Mu-50 (ATCC 700695) is in between 25 and 30 μM, while it is above 50 μM for molecules 2348, 2412, and 2452.

MRSA = assay: Minimal Bactericidal Concentration (MBC) for MRSA; type: cell-based, Staphylococcus aureus; conditions: for MBC: Staphylococcus aureus, MRSA, 99.9% of initial inoculum killed over 24 hours
Procedure: We have determined the Minimal Bactericidal Concentration (MBC) of the pyrazolopyrimidine molecule 2666 for the MRSA strain and the MBC of the purine molecules 2329 and 2833 for MRSA and the MRSE strain respectively.
To determine the MBC, bacteria were grown as per MIC determination in presence of the pyrazolopyrimidine molecule 2666 for MRSA or in presence of the purine molecule 2833 for MRSE or 2329 for MRSA. At 24 hours bacteria were plated on TSB agar plates by the broth microdilution method, and colonies formed on the plates were counted next day.
The MBC represents the lowest concentration at which 99.9% bacteria of the initial inoculum are killed over 24 hours.

[1] = tested on: S. epidermidis (ATCC 35984) 24h-mature biofilm; assay: S. epidermidis 24h-mature biofilm, crystal violet biomass; type: cell-based, Staphylococcus epidermidis; conditions: 80 μM; 24 h treatment of 24-hour mature biofilm
Procedure: In another experiment we let adhere 0.5×10^8 CFU/ml S. epidermidis cells for 4 hr and let the biofilm form for additional 24 hr in presence of 0.25% glucose, at this point we treated the biofilm with different concentrations of molecule 2329 for 24 h in TSB with 0.25% glucose and determined the biofilm biomass using the crystal violet staining.
For biofilm analysis, we first washed the biofilm 3 times with NaCl 0.9% to eliminate all planktonic bacteria, before incubation with a staining Crystal Violet 1% solution in distilled H2O (dH2O).
Wells are washed 3 times with dH2O to eliminate unbound crystal violet. 400 μl Acetic Acid 10% is then added and incubated at RT for 10 min. Absorbance is measured in triplicate at 570 nm, reflecting total biomass of the biofilm.

| Structure (SMILES) | MIC (S. aureus ATCC 25904) [µM] | MBC relative to MIC, MRSA (MRSA) | MBC (MRSA) [µM] | mature biofilm biomass (crystal violet, absorbance 570 nm) [1] |
| --- | --- | --- | --- | --- |
| CCCSc1nc(N[C@@H]2C[C@H]2c2ccc(F)c(F)c2)c2ncn(C)c2n1 [Molecule 2329, N-((1R,2S)-2-(3,4-difluorophenyl)cyclopropyl)-9-methyl-2-(propylthio)-9H-purin-6-amine] | 20 to 25 (≈ 7.51 to 9.39 µg/mL) | around 2 times | 40 (≈ 15 µg/mL) | could reduce |
| CCCSc1nc(N[C@@H]2C[C@H]2c2ccc(F)c(F)c2)c2ncn(CC)c2n1 [Molecule 2348, N-((1R,2S)-2-(3,4-difluorophenyl)cyclopropyl)-9-ethyl-2-(propylthio)-9H-purin-6-amine] | 20 to 25 (≈ 7.79 to 9.74 µg/mL) |  |  |  |
| C=CCn1cnc2c(N[C@@H]3C[C@H]3c3ccc(F)c(F)c3)nc(SCCC)nc21 [Molecule 2412, 9-allyl-N-((1R,2S)-2-(3,4-difluorophenyl)cyclopropyl)-2-(propylthio)-9H-purin-6-amine] | 20 to 25 (≈ 8.03 to 10 µg/mL) |  |  |  |
| C#CCn1cnc2c(N[C@@H]3C[C@H]3c3ccc(F)c(F)c3)nc(SCCC)nc21 [Molecule 2452, N-((1R,2S)-2-(3,4-difluorophenyl)cyclopropyl)-9-(prop-2-yn-1-yl)-2-(propylthio)-9H-purin-6-amine] | 20 to 25 (≈ 7.99 to 9.99 µg/mL) |  |  |  |
| CCSc1nc(N[C@@H]2C[C@H]2c2ccc(F)c(F)c2)c2cnn(C)c2n1.Cl [Molecule 2666, N-((1R,2S)-2-(3,4-difluorophenyl)cyclopropyl)-6-(ethylthio)-1-methyl-1H-pyrazolo[3,4-d]pyrimidin-4-amine hydrochloride] |  | around 2 times | 40 |  |
